This assay relates to HIV-associated Kaposi sarcoma. The assay can be described thus: Objective response by ACTG criteria. It counts as in vivo, human. The following applies: for objective response (OR) rate: 90% CI. The protocol:
For registered patients, pre-treatment evaluation included: physical examination, ophthalmologic exam, electrocardiogram (ECG), echocardiogram or multi-gated acquisition (MUGA) scan, chest x-ray and CT thorax, abdomen, and pelvis. Adverse events according to CTCAE version 4.0 [18] were recorded every three weeks. The burden of cutaneous disease was estimated by summed tumour area sizes (mm^2) from photographic image measurements and evaluated at baseline using ACTG criteria (Supplementary Appendix 3), with subsequent formal response assessments including clinical photographs taken every 6 weeks for 12 months or until disease progression. For patients with visceral or extensive disease, repeat CT scans at these time points were also performed.
OR rate was reported as the proportion of patients who achieved OR out of the total per-protocol population, with 90% confidence intervals (CI). Sensitivity analyses were also performed to compare this OR rate with ones that used the MTD population and the any-dose population as the denominator. The OR rate was also calculated for those who received at least six cycles of selumetinib.
The absence of any detectable residual disease, including tumour-associated oedema, persisting for at least 4 weeks.
A 50% or greater decrease in the number and/or size of previously existing lesions (skin, oral, measurable or evaluable visceral disease) lasting for at least 4 weeks without the appearance of new lesions or the appearance or worsening of tumour-associated oedema or effusions, […] of 25% or more in the product of bi-dimensional diameters of any indicator lesion.
Any response not meeting the criteria for progression or PR.

On to `Cn1cnc2c(F)c(Nc3ccc(Br)cc3Cl)c(C(=O)NOCCO)cc21` [selumetinib, 6-(4-Bromo-2-chloro-phenylamino)-7-fluro-3-methyl-3 H-benzoimidazole-5-carboxylic acid (2-hydroxy-ethoxy)-amide hydrogen sulphate], for which the “objective response (OR) rate” value runs as follows: (MTD population (sensitivity analysis)) 6.7%; (any-dose/safety population (sensitivity analysis)) 6.3%; (per-protocol population, 12 patients, 75 mg bd + ART) 8.3%. The “clinical benefit rate (CR, PR and SD)” value (any-dose/safety population, 16 patients) is reported as 75%. Moreover, for the setting “the only patient with PR (deepened to CR after discontinuing at 3 cycles)”, the response duration stood at 201 days.

The record behind these values is PMC11921695 (BMC Cancer, 2025).
